{
  "source": "patent US4356183A",
  "about": "“Antihypertensive 4-thiazolidinecarboxylic acids (pyridyl derivatives)” (Santen Pharmaceutical Co., Ltd., priority 1978, dated 1982)",
  "key": {"[1]": {"test_system": "contractile response to bradykinin (isolated guinea pig ileum)", "test": "Augmentation of contractile response of isolated guinea pig ileum to bradykinin", "type": "cell-based", "settings": "Cavia porcellus, bradykinin 0.005 μg/ml; compound added 5 min before; 30° C.; read-out: Bradykinin AC50 (50% augmentation of bradykinin activity inducing the contraction of guinea pig ileum)", "procedure": "(§1) Isolated guinea pig ileum was suspended in the organ bath containing 20 ml of Tyrode's solution of 30° C. gassed with 95% O2 +5% CO2. The contraction induced by the addition of angiotensin I (0.1 μg/ml) at intervals of 10 minutes was recorded on a recticorder (Nihon Koden) for 90 seconds using FD pick up (ST-1T-H, Nihon Koden).\n(§2) The test compounds were added to the bath 5 minutes before the addition of angiotensin I.\nFrom the fact that kininase II, which destroys bradykinin having contractive action on isolated guinea pig ileum, is thought to be identical with angiotensin I-converting enzyme, augmentation of the contractile response to bradykinin by test compounds was examined by using bradykinin (0.005 μg/ml) in place of angiotensin I according to the above mentioned method."}, "[2]": {"test_system": "contractile response of isolated guinea pig ileum to angiotensin I", "test": "Inhibition of contractile response of isolated guinea pig ileum to angiotensin I", "type": "cell-based", "settings": "Cavia porcellus, angiotensin I 0.1 μg/ml; compound added 5 min before; 30° C.; read-out: Angiotensin I IC50 (50% inhibition of angiotensin I activity inducing the contraction of guinea pig ileum)", "text": "As the method of measurement of angiotensin I-converting enzyme activity, bioassay for the contractile response of isolated smooth muscle or the pressor response of normal animals and biochemical assay for the enzyme isolated from lung or other organs of animals are known. The former is found more advantageous than the latter for the examination of the convertion of angiotensin I to angiotensin II in vivo.\nIn the present study, therefore, we adopted the bioassay for contractile response of isolated guinea pig ileum to angiotensin I.\n(§3) Measurement of inhibitory activity of angiotensin I-converting enzyme\nas §1, §2\nThe inhibitory activity of angiotensin I-converting enzyme was calculated by the following formula. [formula] A: contractile intensity of angiotensin I before addition of the compound B: contractile intensity of angiotensin I after addition of the compound"}, "[3]": {"molecular_target": "T1, angiotensin I-converting enzyme (Oryctolagus cuniculus, UniProt P12822)", "T1 construct": "angiotensin I-converting enzyme extracted from rabbit lung; from tissue; host or cells: rabbit lung", "T1 sequence (P12822 34-1310)": "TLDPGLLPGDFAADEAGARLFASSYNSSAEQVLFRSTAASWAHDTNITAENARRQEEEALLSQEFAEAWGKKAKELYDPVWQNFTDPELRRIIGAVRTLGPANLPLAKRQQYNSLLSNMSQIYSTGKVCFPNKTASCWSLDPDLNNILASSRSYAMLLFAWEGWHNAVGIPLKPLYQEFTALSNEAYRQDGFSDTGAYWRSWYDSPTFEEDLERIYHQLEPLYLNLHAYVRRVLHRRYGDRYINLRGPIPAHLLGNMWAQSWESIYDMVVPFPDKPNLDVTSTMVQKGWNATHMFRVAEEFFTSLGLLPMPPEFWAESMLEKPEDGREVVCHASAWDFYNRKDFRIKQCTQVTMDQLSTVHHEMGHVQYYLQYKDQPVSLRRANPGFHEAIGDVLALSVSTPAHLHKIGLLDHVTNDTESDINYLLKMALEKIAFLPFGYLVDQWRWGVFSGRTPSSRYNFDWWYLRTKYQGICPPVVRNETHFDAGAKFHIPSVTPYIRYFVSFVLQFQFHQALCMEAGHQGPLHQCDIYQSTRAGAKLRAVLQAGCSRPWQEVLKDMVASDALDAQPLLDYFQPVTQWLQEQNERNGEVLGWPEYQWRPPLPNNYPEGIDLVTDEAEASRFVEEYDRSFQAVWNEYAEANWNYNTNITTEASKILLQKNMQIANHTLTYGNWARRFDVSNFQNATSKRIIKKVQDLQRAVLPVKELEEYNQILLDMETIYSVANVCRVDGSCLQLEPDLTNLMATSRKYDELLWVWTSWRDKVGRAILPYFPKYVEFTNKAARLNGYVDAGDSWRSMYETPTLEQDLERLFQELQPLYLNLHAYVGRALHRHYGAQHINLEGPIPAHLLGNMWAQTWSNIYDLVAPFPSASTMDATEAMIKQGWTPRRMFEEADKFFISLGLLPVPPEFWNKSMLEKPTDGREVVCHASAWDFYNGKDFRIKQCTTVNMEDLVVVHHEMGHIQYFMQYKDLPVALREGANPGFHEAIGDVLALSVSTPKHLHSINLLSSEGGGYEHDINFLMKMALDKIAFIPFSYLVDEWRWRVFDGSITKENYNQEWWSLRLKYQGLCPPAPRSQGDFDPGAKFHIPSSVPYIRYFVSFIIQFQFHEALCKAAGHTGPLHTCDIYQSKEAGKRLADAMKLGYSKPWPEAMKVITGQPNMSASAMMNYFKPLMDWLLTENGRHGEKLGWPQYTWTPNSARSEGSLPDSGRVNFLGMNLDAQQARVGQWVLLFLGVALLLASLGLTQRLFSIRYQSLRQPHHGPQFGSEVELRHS", "test": "Inhibition of angiotensin I-converting enzyme by spectrophotometry (HHL substrate)", "type": "biochemical", "settings": "enzyme from rabbit lung; 5 mM HHL; pH 8.3; 37° C., 30 min", "procedure": "That is, the absorbance of hippuric acid was measured, which is liberated by incubating hippuryl-L-histidyl-L-leucine (HHL) as substrate in the presence of angiotensin I-converting enzyme extracted from rabbit lung.\nas §3\nThe reaction mixture is as follows:\n100 mM phosphate buffer (pH 8.3)\n10^-3 ~10^-9 M enzyme inhibitor\n0.25 ml of the above mixture was incubated at 37° C. for 30 minutes and the reaction was stopped by adding 0.25 ml of 1 N hydrochloric acid. To this solution, 1.5 ml of ethyl acetate was added in order to extract hippuric acid. 1.0 ml of ethyl acetate layer was collected and evaporated to dryness, and the residue obtained was dissolved in 1.0 ml of water.\nThe inhibitory activity of angiotensin I-converting enzyme was calculated by the following formula: [formula]"}, "Acute toxicity test": {"test": "Acute toxicity test", "settings": "rat, in vivo", "procedure": "The male ddy-SLC strain […] (4 weeks of age, weighing 19-21 g) were placed in a breeding room of constant temperature and humidity (23°±1° C., 55±5%) and fed freely pellet diet (CE-2, Clea Japan Inc.) and water ad. libitum for a week. The rats showing the normal growth were selected for the experiment.\nTest compounds are suspended in 0.5% tragacanth solution (p.o.) or dissolved in distilled water (i.v., i.p.), and administered in a dose of 0.5 ml/20 g body weight."}, "[4]": {"test_system": "pressor response to angiotensin I", "test": "Inhibition of pressor response to angiotensin I in rats after oral administration", "type": "in vivo, rat (male Wistar)", "settings": "angiotensin I 300 ng/kg i.v.", "procedure": "Male Wistar strain rats weighing about 200-300 g were used.\nUnder ether anesthesia, polyethylene cannulae are inserted into carotid arthery and jugular vein. The cannula to carotid artery is connected to an electric transducer, while the cannula to jugular vein is connected to an apparatus for continuous infusion. After the complete recovery from anesthesia, angiotensin I is infused intravenously in a dose of 300 ng/kg by the apparatus for continuous infusion, and the pressor response is recorded by polygraph (Nihon Koden, RM-150).\nThe compounds of this invention suspended in 0.5% tragacanth solution are administered orally in a dose of 0.3 ml per 100 g of body weight, and the pressor response to angiotensin I infused intravenously is measured with time.\nThe inhibitory activity of the compounds against angiotensin I-converting enzyme is expressed as the percent inhibition of pressor response to angiotensin I."}},
  "note": "Read-outs that look alike come from different tables or passages of the source.",
  "data": [
    {"smiles": "C[C@H](CS)C(=O)N1C(c2ccccc2)SC[C@H]1C(=O)O", "note": "(stereo partly shown) [Compound 18]", "values": [
      {"measurement": "AC50", "setting": "[1]", "result": 3.1, "unit": "nM"},
      {"measurement": "IC50", "setting": "[2]", "result": 190, "unit": "nM"},
      {"measurement": "IC50", "setting": "[3]", "result": 60, "unit": "nM"},
      {"measurement": "LD50", "setting": "Acute toxicity test; ip, dissolved in distilled water, pH 7, read-out: LD i.p.", "result": "> 1000", "unit": "mg/kg"}
    ]},
    {"smiles": "O=C(O)[C@@H]1CSC(c2ccccc2O)N1C(=O)CCS", "note": "(stereo partly drawn) [Compound 46, (4R)-2-(2-Hydroxyphenyl)-3-(3-mercaptopropanoyl)-4-thiazolidinecarboxylic acid]", "values": [
      {"measurement": "Inhibition (%) of pressor response to angiotensin I, 5 min", "setting": "[4]; 5 min, dose: 3, 45, 49 1.8 mg/kg, 4, 46 1.3, 50 1.4, 76 2.0, 77 1.5", "result": 53.3, "unit": "%"},
      {"measurement": "Inhibition (%) of pressor response to angiotensin I, 15 min", "setting": "[4]; 15 min, dose: 3, 45, 49 1.8 mg/kg, 4, 46 1.3, 50 1.4, 76 2.0, 77 1.5", "result": 62.9, "unit": "%"},
      {"measurement": "Inhibition (%) of pressor response to angiotensin I, 25 min", "setting": "[4]; 25 min, dose: 3, 45, 49 1.8 mg/kg, 4, 46 1.3, 50 1.4, 76 2.0, 77 1.5", "result": 64.7, "unit": "%"},
      {"measurement": "Inhibition (%) of pressor response to angiotensin I, 35 min", "setting": "[4]; 35 min, dose: 3, 45, 49 1.8 mg/kg, 4, 46 1.3, 50 1.4, 76 2.0, 77 1.5", "result": 63.7, "unit": "%"},
      {"measurement": "Inhibition (%) of pressor response to angiotensin I, 45 min", "setting": "[4]; 45 min, dose: 3, 45, 49 1.8 mg/kg, 4, 46 1.3, 50 1.4, 76 2.0, 77 1.5", "result": 54.0, "unit": "%"},
      {"measurement": "Inhibition (%) of pressor response to angiotensin I, 55 min", "setting": "[4]; 55 min, dose: 3, 45, 49 1.8 mg/kg, 4, 46 1.3, 50 1.4, 76 2.0, 77 1.5", "result": 49.3, "unit": "%"},
      {"measurement": "Inhibition (%) of pressor response to angiotensin I, 65 min", "setting": "[4]; 65 min, dose: 3, 45, 49 1.8 mg/kg, 4, 46 1.3, 50 1.4, 76 2.0, 77 1.5", "result": 47.7, "unit": "%"},
      {"measurement": "Inhibition (%) of pressor response to angiotensin I, 75 min", "setting": "[4]; 75 min, dose: 3, 45, 49 1.8 mg/kg, 4, 46 1.3, 50 1.4, 76 2.0, 77 1.5", "result": 38.8, "unit": "%"},
      {"measurement": "Inhibition (%) of pressor response to angiotensin I, 85 min", "setting": "[4]; 85 min, dose: 3, 45, 49 1.8 mg/kg, 4, 46 1.3, 50 1.4, 76 2.0, 77 1.5", "result": 34.0, "unit": "%"},
      {"measurement": "Inhibition (%) of pressor response to angiotensin I, 95 min", "setting": "[4]; 95 min, dose: 45, 49 1.8 mg/kg, 4, 46 1.3, 50 1.4, 76 2.0, 77 1.5", "result": 30.0, "unit": "%"},
      {"measurement": "Inhibition (%) of pressor response to angiotensin I, 105 min", "setting": "[4]; 105 min, dose: 45, 49 1.8 mg/kg, 46 1.3, 50 1.4, 76 2.0, 77 1.5", "result": 30.0, "unit": "%"},
      {"measurement": "Inhibition (%) of pressor response to angiotensin I, 115 min", "setting": "[4]; 115 min, dose: 45, 49 1.8 mg/kg, 46 1.3, 50 1.4, 76 2.0, 77 1.5", "result": 31.0, "unit": "%"},
      {"measurement": "AC50", "setting": "[1]", "result": 0.3, "unit": "nM"},
      {"measurement": "IC50", "setting": "[2]", "result": 19, "unit": "nM"},
      {"measurement": "LD50", "setting": "Acute toxicity test; po, suspended in 0.5% tragacanth solution, read-out: LD50 p.o.", "result": "> 10000", "unit": "mg/kg"}
    ]}
  ]
}
